Results as given in ChEMBL document CHEMBL5647694, “Novel orally bioavailable EZH1/2 dual inhibitors with greater antitumor efficacy than an EZH2 selective inhibitor” (Cancer Sci, 2017).

How the values were obtained:
[1] = molecular target: Tyrosine-protein kinase CSK (Homo sapiens) (UniProt P41240); test: Inhibition of N-terminal GST-fused full length human CSK (1 to 450 residues) expressed in baculovirus-infected Sf21 cells using Srctide as substrate at 1 uM in presence of ATP by Mobility shift assay
[2] = molecular target: Ephrin type-A receptor 1 (Homo sapiens) (UniProt P21709); test: Inhibition of N-terminal GST-fused human EPHA1 cytoplasmic domain (586 to 976 residues) expressed in baculovirus-infected Sf21 cells using Blk/Lyntide as substrate at 1 uM in presence of ATP by Mobility shift assay
[3] = molecular target: Ephrin type-B receptor 3 (Homo sapiens) (UniProt P54753); test: Inhibition of N-terminal GST-fused human EPHB3 cytoplasmic domain (596 to 998 residues) expressed in baculovirus-infected Sf21 cells using Blk/Lyntide as substrate at 1 uM in presence of ATP by Mobility shift assay
[4] = molecular target: Vascular endothelial growth factor receptor 3 (Homo sapiens) (UniProt P35916); test: Inhibition of N-terminal GST-fused human FLT4 cytoplasmic domain (798 to 1298 residues) expressed in baculovirus-infected Sf21 cells using CSKtide as substrate at 1 uM in presence of ATP by Mobility shift assay
[5] = molecular target: Insulin receptor (Homo sapiens) (UniProt P06213); test: Inhibition of N-terminal fused human INSR catalytic domain (1005 to 1310 residues) expressed in baculovirus-infected Sf21 cells using IRS1 as substrate at 1 uM in presence of ATP by Mobility shift assay
[6] = molecular target: Tyrosine-protein kinase Mer (Homo sapiens) (UniProt Q12866); test: Inhibition of N-terminal GST-tagged human MER cytoplasmic domain (528 to 999 residues) expressed in baculovirus-infected Sf21 cells using CSKtide as substrate at 1 uM in presence of ATP by Mobility shift assay
[7] = molecular target: Hepatocyte growth factor receptor (Homo sapiens) (UniProt P08581); test: Inhibition of N-terminal GST-tagged human MET cytoplasmic domain (956 to 1390 residues ) expressed in baculovirus-infected Sf21 cells using Srctide as substrate at 1 uM in presence of ATP by Mobility shift assay
[8] = molecular target: Proto-oncogene tyrosine-protein kinase ROS (Homo sapiens) (UniProt P08922); test: Inhibition of N-terminal GST-tagged human ROS cytoplasmic domain (1883 to 2347 residues) expressed in baculovirus-infected Sf21 cells using IRS1 as substrate at 1 uM in presence of ATP by Mobility shift assay
[9] = molecular target: Aurora kinase C (Homo sapiens) (UniProt Q9UQB9); test: Inhibition of N-terminal GST-fused full length human AurC (1 to 275 residues) expressed in baculovirus-infected Sf21 cells using Kemptide as substrate at 1 uM in presence of ATP by Mobility shift assay
[10] = molecular target: Calcium/calmodulin-dependent protein kinase type 1D (Homo sapiens) (UniProt Q8IU85); test: Inhibition of N-terminal GST-tagged full length human CAMK1d (1 to 357 residues) expressed in baculovirus-infected Sf21 cells using Synapsin peptide as substrate at 1 uM in presence of ATP by Mobility shift assay
[11] = molecular target: Calcium/calmodulin-dependent protein kinase type II subunit beta (Homo sapiens) (UniProt Q13554); test: Inhibition of N-terminal GST-tagged full length human CAMK2b (1 to 503 residues) expressed in baculovirus-infected Sf21 cells using GS peptide as substrate at 1 uM in presence of ATP by Mobility shift assay
[12] = molecular target: CDK3/Cyclin E (Homo sapiens) (UniProt P24864+Q00526); test: Inhibition of N-terminal GST-tagged full length human CDK3 (1 to 305 residues)/N-terminal GST-tagged human CyclinE1 (1 to 410 residues) expressed in baculovirus-infected Sf21 cells using Modified Histone H1 as substrate at 1 uM in presence of ATP by Mobility shift assay
[13] = molecular target: Dual specificity protein kinase CLK2 (Homo sapiens) (UniProt P49760); test: Inhibition of N-terminal GST-fused full length human CLK2 (1 to 499 residues) expressed in baculovirus expression system using DYRKtide-F as substrate at 1 uM in presence of ATP by Mobility shift assay
[14] = molecular target: Inhibitor of nuclear factor kappa-B kinase subunit beta (Homo sapiens) (UniProt O14920); test: Inhibition of N-terminal His-tagged truncated human IKK-beta (1 to 662 residues) expressed in baculovirus expression system using Modified IkBalpha-derived peptide as substrate at 1 uM in presence of ATP by Mobility shift assay
[15] = molecular target: Serine/threonine-protein kinase Nek6 (Homo sapiens) (UniProt Q9HC98); test: Inhibition of N-terminal GST-fused full length human NEK6 (1 to 313 residues) expressed in baculovirus expression system using CDK7 peptide as substrate at 1 uM in presence of ATP by Mobility shift assay
[16] = molecular target: NUAK family SNF1-like kinase 1 (Homo sapiens) (UniProt O60285); test: Inhibition of N-terminal GST-fused full length human Nuak1 (1 to 661 residues) expressed in baculovirus expression system using CHKtide as substrate at 1 uM in presence of ATP by Mobility shift assay
[17] = molecular target: NUAK family SNF1-like kinase 2 (Homo sapiens) (UniProt Q9H093); test: Inhibition of N-terminal GST-fused full length human Nuak2 (1 to 628 residues) expressed in baculovirus expression system using CHKtide as substrate at 1 uM in presence of ATP by Mobility shift assay
[18] = molecular target: Serine/threonine-protein kinase PAK 4 (Homo sapiens) (UniProt O96013); test: Inhibition of N-terminal GST-fused full length human PAK4 (1 to 591 residues) expressed in baculovirus expression system using SGKtide as substrate at 1 uM in presence of ATP by Mobility shift assay
[19] = molecular target: Serine/threonine-protein kinase pim-3 (Homo sapiens) (UniProt Q86V86); test: Inhibition of N-terminal GST-tagged full length human PIM3 (1 to 326 residues) expressed in baculovirus expression system using S6K2 peptide as substrate at 1 uM in presence of ATP by Mobility shift assay
[20] = molecular target: Protein kinase C alpha type (Homo sapiens) (UniProt P17252); test: Inhibition of N-terminal GST-fused human full length PKC-alpha (1 to 672 residues ) expressed in baculovirus expression system using PKC peptide as substrate at 1 uM in presence of ATP by Mobility shift assay
[21] = molecular target: STE20-like serine/threonine-protein kinase (Homo sapiens) (UniProt Q9H2G2); test: Inhibition of N-terminal GST-fused full length human SLK (1 to 1152 residues) expressed in baculovirus expression system using Moesin-derived peptide as substrate at 1 uM in presence of ATP by Mobility shift assay
[22] = molecular target: SRSF protein kinase 2 (Homo sapiens) (UniProt P78362); test: Inhibition of N-terminal GST-fused full length human SRPK2 (1 to 688 residues) expressed in baculovirus expression system using DYRKtide-F as substrate at 1 uM in presence of ATP by Mobility shift assay
Sequence of SRSF protein kinase 2 (Homo sapiens) (P78362 whole entry, looked up, the tested form may be a part): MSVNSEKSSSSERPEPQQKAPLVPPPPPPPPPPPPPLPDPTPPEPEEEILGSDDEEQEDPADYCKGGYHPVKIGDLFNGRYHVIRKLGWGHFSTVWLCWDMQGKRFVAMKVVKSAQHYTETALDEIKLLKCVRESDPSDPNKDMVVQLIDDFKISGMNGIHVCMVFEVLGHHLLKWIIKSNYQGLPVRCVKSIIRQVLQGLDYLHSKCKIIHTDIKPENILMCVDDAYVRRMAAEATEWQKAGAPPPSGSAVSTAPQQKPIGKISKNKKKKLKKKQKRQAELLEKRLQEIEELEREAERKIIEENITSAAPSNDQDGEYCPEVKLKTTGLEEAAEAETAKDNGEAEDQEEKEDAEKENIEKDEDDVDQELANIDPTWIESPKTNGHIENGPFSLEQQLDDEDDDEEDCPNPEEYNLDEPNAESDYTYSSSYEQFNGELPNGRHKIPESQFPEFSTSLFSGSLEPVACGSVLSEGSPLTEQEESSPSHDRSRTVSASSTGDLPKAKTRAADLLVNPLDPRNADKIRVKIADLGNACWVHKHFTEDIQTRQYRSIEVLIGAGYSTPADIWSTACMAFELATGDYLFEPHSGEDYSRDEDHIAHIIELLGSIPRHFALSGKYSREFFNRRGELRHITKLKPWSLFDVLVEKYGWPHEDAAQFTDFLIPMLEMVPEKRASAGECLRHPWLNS

Sequence of Ephrin type-B receptor 3 (Homo sapiens) (P54753 whole entry, the tested form may be a part): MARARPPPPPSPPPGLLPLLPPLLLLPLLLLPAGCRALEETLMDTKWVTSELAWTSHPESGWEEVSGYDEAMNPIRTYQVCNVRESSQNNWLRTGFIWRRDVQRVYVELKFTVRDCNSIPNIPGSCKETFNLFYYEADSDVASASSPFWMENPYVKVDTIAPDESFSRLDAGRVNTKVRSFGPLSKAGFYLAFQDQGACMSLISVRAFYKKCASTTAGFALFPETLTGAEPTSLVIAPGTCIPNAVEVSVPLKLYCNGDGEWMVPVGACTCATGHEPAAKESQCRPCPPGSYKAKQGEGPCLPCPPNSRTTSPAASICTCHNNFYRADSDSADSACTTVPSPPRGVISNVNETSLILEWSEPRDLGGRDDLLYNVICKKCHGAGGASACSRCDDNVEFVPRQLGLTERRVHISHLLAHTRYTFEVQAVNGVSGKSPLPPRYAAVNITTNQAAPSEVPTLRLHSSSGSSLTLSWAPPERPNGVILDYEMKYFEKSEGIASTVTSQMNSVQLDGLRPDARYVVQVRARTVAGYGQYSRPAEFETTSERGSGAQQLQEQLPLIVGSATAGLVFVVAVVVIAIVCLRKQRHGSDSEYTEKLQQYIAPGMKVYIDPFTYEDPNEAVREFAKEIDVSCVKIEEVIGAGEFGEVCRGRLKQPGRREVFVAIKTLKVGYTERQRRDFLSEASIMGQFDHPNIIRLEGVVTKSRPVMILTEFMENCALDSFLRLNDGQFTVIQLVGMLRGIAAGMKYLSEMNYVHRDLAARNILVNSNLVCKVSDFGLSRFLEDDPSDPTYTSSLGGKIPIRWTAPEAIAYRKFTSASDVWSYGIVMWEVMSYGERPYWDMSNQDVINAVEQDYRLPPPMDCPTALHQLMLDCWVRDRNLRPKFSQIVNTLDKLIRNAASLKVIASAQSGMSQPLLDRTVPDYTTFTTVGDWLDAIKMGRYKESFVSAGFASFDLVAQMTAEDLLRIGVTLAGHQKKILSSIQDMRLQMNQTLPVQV
Sequence of Calcium/calmodulin-dependent protein kinase type 1D (Homo sapiens) (Q8IU85 whole entry, looked up, the tested form may be a part): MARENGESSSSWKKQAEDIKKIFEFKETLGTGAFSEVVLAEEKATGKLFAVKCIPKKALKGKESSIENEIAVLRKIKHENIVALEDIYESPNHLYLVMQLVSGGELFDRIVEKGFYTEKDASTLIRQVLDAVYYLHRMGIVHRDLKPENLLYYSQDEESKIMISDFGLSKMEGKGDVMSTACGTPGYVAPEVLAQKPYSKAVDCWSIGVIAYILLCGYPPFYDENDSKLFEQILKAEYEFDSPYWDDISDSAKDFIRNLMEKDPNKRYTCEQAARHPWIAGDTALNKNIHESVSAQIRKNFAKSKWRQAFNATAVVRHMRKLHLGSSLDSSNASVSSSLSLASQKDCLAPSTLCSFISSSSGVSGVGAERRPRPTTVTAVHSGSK
Sequence of Aurora kinase C (Homo sapiens) (Q9UQB9 whole entry, the tested form may be a part): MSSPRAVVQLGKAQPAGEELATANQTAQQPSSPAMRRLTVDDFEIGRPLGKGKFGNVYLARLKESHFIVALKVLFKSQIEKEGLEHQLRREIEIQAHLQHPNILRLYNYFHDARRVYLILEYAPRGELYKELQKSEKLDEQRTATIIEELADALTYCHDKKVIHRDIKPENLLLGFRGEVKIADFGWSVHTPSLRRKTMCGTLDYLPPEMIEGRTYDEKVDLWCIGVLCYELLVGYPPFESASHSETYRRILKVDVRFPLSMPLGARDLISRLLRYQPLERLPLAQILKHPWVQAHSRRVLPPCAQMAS
Sequence of Calcium/calmodulin-dependent protein kinase type II subunit beta (Homo sapiens) (Q13554 whole entry, the tested form may be a part): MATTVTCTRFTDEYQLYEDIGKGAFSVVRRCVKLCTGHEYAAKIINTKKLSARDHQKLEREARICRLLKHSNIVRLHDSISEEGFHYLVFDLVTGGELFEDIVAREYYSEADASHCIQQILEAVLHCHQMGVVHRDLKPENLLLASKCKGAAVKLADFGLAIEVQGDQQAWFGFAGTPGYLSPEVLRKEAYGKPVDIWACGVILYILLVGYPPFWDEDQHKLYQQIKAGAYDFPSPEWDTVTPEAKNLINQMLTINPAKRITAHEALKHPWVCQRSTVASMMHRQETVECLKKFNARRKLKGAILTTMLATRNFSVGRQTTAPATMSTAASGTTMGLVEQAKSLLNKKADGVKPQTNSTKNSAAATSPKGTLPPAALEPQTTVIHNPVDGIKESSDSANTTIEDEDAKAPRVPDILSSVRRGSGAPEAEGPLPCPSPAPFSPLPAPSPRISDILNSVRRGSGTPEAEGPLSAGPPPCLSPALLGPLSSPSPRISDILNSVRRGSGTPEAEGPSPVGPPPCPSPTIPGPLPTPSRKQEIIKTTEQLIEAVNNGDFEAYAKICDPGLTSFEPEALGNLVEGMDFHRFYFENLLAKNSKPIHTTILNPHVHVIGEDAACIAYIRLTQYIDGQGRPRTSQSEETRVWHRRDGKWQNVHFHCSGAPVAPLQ
Sequence of Serine/threonine-protein kinase Nek6 (Homo sapiens) (Q9HC98 whole entry, the tested form may be a part): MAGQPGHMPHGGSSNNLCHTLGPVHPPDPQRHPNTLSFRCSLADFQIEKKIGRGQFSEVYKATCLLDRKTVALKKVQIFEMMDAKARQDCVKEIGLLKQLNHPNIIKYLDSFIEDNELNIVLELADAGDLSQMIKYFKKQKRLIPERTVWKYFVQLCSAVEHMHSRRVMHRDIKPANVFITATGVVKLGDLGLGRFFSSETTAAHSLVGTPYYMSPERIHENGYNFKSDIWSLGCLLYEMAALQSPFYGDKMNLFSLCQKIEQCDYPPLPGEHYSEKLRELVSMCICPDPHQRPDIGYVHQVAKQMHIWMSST
Sequence of CDK3/Cyclin E (Homo sapiens) (P24864 whole entry, looked up, the tested form may be a part): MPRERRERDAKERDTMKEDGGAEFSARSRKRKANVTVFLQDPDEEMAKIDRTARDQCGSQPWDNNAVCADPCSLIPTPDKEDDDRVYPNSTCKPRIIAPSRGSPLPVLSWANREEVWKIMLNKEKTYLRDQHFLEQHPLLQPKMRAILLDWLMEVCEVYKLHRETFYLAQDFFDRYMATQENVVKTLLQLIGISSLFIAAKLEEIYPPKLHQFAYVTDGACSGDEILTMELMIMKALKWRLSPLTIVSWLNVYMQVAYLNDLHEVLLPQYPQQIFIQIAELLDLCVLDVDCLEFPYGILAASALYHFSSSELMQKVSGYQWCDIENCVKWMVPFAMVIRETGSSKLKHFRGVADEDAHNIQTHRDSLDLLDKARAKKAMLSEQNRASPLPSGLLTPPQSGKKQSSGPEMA
Sequence of CDK3/Cyclin E (Homo sapiens) (Q00526 whole entry, looked up, the tested form may be a part): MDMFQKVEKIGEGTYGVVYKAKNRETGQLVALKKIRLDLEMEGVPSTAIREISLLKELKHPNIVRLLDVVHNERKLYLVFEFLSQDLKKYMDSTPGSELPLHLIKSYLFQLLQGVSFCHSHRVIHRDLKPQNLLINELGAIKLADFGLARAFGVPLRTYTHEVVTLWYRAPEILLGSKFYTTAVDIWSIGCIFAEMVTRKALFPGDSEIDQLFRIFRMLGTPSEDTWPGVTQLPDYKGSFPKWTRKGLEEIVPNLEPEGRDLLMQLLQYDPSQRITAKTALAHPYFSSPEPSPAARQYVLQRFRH
Sequence of Inhibitor of nuclear factor kappa-B kinase subunit beta (Homo sapiens) (O14920 whole entry, the tested form may be a part): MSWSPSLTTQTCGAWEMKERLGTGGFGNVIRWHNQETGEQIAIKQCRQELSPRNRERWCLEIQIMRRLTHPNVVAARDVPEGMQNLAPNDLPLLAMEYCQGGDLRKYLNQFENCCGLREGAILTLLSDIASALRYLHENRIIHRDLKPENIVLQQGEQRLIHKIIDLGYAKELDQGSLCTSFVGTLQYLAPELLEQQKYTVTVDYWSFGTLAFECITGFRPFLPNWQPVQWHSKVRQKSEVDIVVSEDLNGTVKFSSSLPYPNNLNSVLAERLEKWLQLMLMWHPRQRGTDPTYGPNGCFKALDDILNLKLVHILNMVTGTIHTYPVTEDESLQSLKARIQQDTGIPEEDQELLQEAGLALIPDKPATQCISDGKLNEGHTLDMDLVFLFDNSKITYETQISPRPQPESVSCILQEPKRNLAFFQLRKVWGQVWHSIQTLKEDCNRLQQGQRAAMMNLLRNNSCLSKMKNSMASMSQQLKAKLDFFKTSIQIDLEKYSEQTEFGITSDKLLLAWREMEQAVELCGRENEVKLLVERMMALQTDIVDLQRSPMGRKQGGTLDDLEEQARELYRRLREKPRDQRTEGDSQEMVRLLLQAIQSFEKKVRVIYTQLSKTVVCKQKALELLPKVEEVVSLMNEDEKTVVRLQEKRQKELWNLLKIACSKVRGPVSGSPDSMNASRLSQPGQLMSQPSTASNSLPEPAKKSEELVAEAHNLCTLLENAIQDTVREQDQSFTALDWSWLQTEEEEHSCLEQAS

| Structure (SMILES) | inhibition [1] [%] | inhibition [2] [%] | inhibition [3] [%] | inhibition [4] [%] | inhibition [5] [%] | inhibition [6] [%] | inhibition [7] [%] | inhibition [8] [%] | inhibition [9] [%] | inhibition [10] [%] | inhibition [11] [%] | inhibition [12] [%] | inhibition [13] [%] | inhibition [14] [%] | inhibition [15] [%] | inhibition [16] [%] | inhibition [17] [%] | inhibition [18] [%] | inhibition [19] [%] | inhibition [20] [%] | further results |
| --- | --- | --- | --- | --- | --- | --- | --- | --- | --- | --- | --- | --- | --- | --- | --- | --- | --- | --- | --- | --- | --- |
| Cc1cc(C)c(CNC(=O)c2cc(Cl)c3c(c2C)O[C@@](C)([C@H]2CC[C@H](N(C)C)CC2)O3)c(=O)[nH]1 [VALEMETOSTAT] | -5.9 | -1.6 | -5.9 | -1.9 | 0.1 | -1.6 | -5 | -0.9 | 21.9 | -3.5 | -1.4 | -0.2 | 2.5 | -1.8 | 0.7 | 3 | 2.1 | 0.1 | 5.9 | 24 | inhibition [21]: 3.3%; inhibition [22]: 0% |
| Cc1cc(C)c(CNC(=O)c2cc(Br)c3c(c2C)O[C@@](C)([C@H]2CC[C@H](N(C)C)CC2)O3)c(=O)[nH]1 | -0.5 | -2.8 | -4.4 | -1.5 | 4.8 | -1.5 | -2.1 | -2.1 | -9.2 | -3.6 | -0.3 | -1 | -1.6 | 2.1 | -0.1 | -1.7 | -4 | -1.8 | 5.7 | 4.7 | inhibition [21]: 1.6%; inhibition [22]: -1.6% |
